One data set relates to SARS-CoV-2. The data set is classed as cell-based.

With `OC[C@H]1NC[C@H](O)[C@@H](O)[C@@H]1O` [Comparative Example 2, 1-Deoxynojirimycin], the IC50 in the data set with SARS-CoV-2 (SARS-CoV-2 (0.0125 MOI) in Vero cells, 24 hours, N protein immunofluorescence, highest concentration 500 μg/ml, two repeated experiments) is more than 500 µg/mL. Further, the “inhibition of infection with SARS-CoV-2 (in words)” value in the data set with SARS-CoV-2 (Vero cells, up to 500 μg/ml) is recorded as “did not inhibit infection”. Besides, the CC50 with Vero cells was more than 500 µg/mL.

Propolis [Comparative Example 1] registered a CC50 with Vero cells of more than 500 µg/mL.

Values taken from patent US20220323533A1, “COMPOSITION FOR PREVENTING, INHIBITING OR TREATING INFECTION OF CORONAVIRUS” (priority 2021, published 2022).
